What was measured:
[1] = target: 5-hydroxytryptamine receptor 2B (Homo sapiens, UniProt P41595); format: cell membranes, CHO-K1, Membrane; settings: cho-k1; also: in other assays of this panel Not Active means under 50% inhibition at 10 µM
Cytochrome P450 2A6 = target: T1, Cytochrome P450 2A6 (Homo sapiens, UniProt P11509); settings: bti-tn-5b1-4; also: in other assays of this panel Not Active means under 50% inhibition at 10 µM
T1 sequence (P11509 whole entry): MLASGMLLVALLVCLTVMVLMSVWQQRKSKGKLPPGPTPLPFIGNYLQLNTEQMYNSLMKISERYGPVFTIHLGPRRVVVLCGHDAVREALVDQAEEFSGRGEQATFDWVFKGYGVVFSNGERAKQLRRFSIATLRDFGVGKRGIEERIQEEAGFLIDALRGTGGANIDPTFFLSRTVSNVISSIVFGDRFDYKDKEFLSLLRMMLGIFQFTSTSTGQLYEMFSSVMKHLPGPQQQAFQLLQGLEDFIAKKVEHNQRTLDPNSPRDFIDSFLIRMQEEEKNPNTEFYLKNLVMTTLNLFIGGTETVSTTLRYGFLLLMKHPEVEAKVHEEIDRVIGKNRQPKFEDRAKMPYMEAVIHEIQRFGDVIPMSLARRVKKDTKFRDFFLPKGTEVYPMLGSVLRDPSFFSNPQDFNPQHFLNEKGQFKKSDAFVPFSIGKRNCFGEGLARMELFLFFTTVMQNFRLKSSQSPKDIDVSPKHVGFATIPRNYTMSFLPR

[2] = target: Kappa-type opioid receptor (Homo sapiens, UniProt P41145); test: DRUGMATRIX: Opiate kappa (OP2, KOP) radioligand binding (ligand: [3H] Diprenorphine); format: cell membranes, HEK293, Membrane; settings: hek293; Not Active = under 50% inhibition at 10 µM
Progesterone receptor = target: T2, Progesterone receptor (Bos taurus, UniProt Q690N0); test: DRUGMATRIX: Progesterone radioligand binding (ligand: [3H] R-5020); format: tissue-based, Uterus; settings: Not Active = under 50% inhibition at 10 µM
T2 sequence (Q690N0 whole entry): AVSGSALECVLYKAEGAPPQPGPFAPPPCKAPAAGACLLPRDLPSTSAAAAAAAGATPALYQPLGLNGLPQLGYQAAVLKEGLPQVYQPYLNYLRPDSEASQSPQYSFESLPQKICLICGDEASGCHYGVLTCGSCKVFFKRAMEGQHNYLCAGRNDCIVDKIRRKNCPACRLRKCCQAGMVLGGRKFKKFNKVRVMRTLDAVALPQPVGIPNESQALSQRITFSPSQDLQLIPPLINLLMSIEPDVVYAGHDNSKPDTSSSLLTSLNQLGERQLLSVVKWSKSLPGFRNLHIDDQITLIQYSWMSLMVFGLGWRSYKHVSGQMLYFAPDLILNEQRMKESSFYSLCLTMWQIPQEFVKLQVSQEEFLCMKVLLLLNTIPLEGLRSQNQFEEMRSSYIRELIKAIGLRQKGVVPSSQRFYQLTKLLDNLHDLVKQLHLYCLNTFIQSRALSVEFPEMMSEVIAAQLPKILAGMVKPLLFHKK

[3] = target: T3, Alpha-1B adrenergic receptor (Rattus norvegicus, UniProt P15823); test: DRUGMATRIX: Alpha-1B adrenergic receptor radioligand binding (ligand: prazosin); format: cell membranes, Wistar, Liver, Membrane; settings: Not Active = under 50% inhibition at 10 µM
T3 sequence (P15823 whole entry): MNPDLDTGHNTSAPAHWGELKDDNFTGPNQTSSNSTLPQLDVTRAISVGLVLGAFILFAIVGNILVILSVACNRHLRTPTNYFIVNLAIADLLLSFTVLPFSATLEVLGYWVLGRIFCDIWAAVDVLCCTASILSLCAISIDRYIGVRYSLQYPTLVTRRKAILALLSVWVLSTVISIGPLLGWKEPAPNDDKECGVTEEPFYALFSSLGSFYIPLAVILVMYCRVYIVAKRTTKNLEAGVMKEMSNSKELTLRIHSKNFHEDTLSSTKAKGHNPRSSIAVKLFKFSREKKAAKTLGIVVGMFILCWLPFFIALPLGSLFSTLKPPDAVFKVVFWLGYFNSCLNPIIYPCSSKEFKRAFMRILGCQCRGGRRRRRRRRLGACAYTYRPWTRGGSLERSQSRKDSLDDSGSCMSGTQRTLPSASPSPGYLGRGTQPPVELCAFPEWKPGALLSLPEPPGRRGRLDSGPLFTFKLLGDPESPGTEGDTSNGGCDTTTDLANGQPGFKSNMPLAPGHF

Cytochrome P450 1A2 = target: T4, Cytochrome P450 1A2 (Homo sapiens, UniProt P05177); settings: bti-tn-5b1-4; also: in other assays of this panel Not Active means under 50% inhibition at 10 µM
T4 sequence (P05177 whole entry): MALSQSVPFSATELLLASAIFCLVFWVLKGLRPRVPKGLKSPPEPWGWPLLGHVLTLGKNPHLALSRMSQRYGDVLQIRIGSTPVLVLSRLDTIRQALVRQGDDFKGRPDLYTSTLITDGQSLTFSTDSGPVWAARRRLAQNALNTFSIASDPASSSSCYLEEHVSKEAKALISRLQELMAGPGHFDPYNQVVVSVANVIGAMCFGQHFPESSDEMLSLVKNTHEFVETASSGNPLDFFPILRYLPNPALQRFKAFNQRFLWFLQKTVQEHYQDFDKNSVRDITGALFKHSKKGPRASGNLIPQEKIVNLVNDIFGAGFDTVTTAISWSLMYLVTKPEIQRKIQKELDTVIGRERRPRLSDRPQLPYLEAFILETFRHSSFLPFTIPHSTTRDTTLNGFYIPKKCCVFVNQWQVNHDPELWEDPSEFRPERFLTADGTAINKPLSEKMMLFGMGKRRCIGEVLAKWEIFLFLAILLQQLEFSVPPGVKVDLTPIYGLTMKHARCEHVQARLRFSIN

Sequence of Kappa-type opioid receptor (P41145 whole entry): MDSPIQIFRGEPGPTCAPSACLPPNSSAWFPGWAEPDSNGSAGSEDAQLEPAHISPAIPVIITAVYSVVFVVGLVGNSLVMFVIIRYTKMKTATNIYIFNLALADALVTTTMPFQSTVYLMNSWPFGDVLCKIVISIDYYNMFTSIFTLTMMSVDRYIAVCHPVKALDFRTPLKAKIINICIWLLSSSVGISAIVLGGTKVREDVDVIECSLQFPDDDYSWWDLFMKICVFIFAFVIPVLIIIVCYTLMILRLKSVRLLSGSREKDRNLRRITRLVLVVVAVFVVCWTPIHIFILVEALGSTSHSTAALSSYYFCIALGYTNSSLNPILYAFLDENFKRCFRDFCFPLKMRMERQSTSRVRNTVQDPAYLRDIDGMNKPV
Sequence of 5-hydroxytryptamine receptor 2B (P41595 whole entry): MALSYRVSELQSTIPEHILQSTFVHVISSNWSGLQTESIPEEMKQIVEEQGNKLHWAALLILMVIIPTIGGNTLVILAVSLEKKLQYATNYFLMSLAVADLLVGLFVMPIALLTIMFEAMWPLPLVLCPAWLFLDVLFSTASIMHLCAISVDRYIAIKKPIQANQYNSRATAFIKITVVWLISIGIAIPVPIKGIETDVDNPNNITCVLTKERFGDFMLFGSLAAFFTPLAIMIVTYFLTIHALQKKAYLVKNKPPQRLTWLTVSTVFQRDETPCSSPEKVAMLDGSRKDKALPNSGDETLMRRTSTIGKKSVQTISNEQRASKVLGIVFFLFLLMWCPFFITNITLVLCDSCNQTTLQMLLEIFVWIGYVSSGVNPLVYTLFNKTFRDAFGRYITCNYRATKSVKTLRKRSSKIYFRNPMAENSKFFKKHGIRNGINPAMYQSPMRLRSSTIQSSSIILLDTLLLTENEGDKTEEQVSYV

## CC[C@@]1(O)C(=O)OCc2c1cc1n(c2=O)Cc2cc3c(CN(C)C)c(O)ccc3nc2-1 [TOPOTECAN]
[1]
  IC50: Not Active
Cytochrome P450 2A6
  IC50: Not Active
  Ki: Not Active
[2]
  IC50: Not Active
Progesterone receptor
  IC50: Not Active
[3]
  IC50: Not Active
Cytochrome P450 1A2
  IC50: Not Active
  Ki: Not Active

## CC[C@H](C)C(=O)O[C@H]1CCC=C2C=C[C@H](C)[C@H](CC[C@@H]3C[C@@H](O)CC(=O)O3)[C@H]21 [MEVASTATIN]
[1]
  IC50: Not Active
Cytochrome P450 2A6
  IC50: Not Active
  Ki: Not Active
[2]
  IC50: Not Active
Progesterone receptor
  IC50: Not Active
[3]
  IC50: Not Active
Cytochrome P450 1A2
  IC50: Not Active
  Ki: Not Active

## CS(=O)(=O)c1ccc(C2=C(c3ccccc3)C(=O)OC2)cc1 [ROFECOXIB]
[1]
  IC50: Not Active
Cytochrome P450 2A6
  IC50: Not Active
  Ki: Not Active
[2]
  IC50: Not Active
Progesterone receptor
  IC50: Not Active
[3]
  IC50: Not Active
Cytochrome P450 1A2
  IC50: Not Active
  Ki: Not Active

## Cc1cn([C@H]2C=C[C@@H](CO)O2)c(=O)[nH]c1=O [STAVUDINE]
[1]
  IC50: Not Active
Cytochrome P450 2A6
  IC50: Not Active
  Ki: Not Active
[2]
  IC50: Not Active
Progesterone receptor
  IC50: Not Active
[3]
  IC50: Not Active
Cytochrome P450 1A2
  IC50: Not Active
  Ki: Not Active

## Nc1nc(N)c2nc(-c3ccccc3)c(N)nc2n1
[1]
  IC50: Not Active
Cytochrome P450 2A6
  IC50: Not Active
  Ki: Not Active
[2]
  IC50: Not Active
Progesterone receptor
  IC50: Not Active
[3]
  IC50: Not Active
Cytochrome P450 1A2
  IC50: Not Active
  Ki: Not Active

## C[C@]12CCC(=O)C[C@@H]1CC[C@@H]1[C@@H]2CC[C@]2(C)[C@@H](O)CC[C@@H]12 [STANOLONE]
[1]
  IC50: Not Active
Cytochrome P450 2A6
  IC50: Not Active
  Ki: Not Active
[2]
  IC50: Not Active
Progesterone receptor; read-out: IC50
  IC50: 1.25 µM
Progesterone receptor; read-out: Ki
  Ki: 0.163 µM
[3]
  IC50: Not Active
Cytochrome P450 1A2
  IC50: Not Active
  Ki: Not Active

## CC1(C)[C@H](C(=O)O)N2C(=O)C[C@H]2S1(=O)=O [SULBACTAM]
[1]
  IC50: Not Active
Cytochrome P450 2A6
  IC50: Not Active
  Ki: Not Active
[2]
  IC50: Not Active
Progesterone receptor
  IC50: Not Active
[3]
  IC50: Not Active
Cytochrome P450 1A2
  IC50: Not Active
  Ki: Not Active

## CCOC(=O)C1=C(C)NC(C)=C(C(=O)OCC)C1c1ccccc1/C=C/C(=O)OC(C)(C)C [LACIDIPINE]
[1]
  IC50: Not Active
Cytochrome P450 2A6
  IC50: Not Active
  Ki: Not Active
[2]
  IC50: Not Active
Progesterone receptor
  IC50: Not Active
[3]
  IC50: Not Active
Cytochrome P450 1A2
  IC50: Not Active
  Ki: Not Active

## CC(N)C12CC3CC(CC(C3)C1)C2 (stereo unspecified) [RIMANTADINE]
[1]
  IC50: Not Active
Cytochrome P450 2A6
  IC50: Not Active
  Ki: Not Active
[2]
  IC50: Not Active
Progesterone receptor
  IC50: Not Active
[3]
  IC50: Not Active
Cytochrome P450 1A2
  IC50: Not Active
  Ki: Not Active

## CO[C@@]12[C@H](COC(N)=O)C3=C(C(=O)C(C)=C(N)C3=O)N1C[C@@H]1N[C@@H]12 [MITOMYCIN]
[1]
  IC50: Not Active
Cytochrome P450 2A6
  IC50: Not Active
  Ki: Not Active
[2]
  IC50: Not Active
Progesterone receptor
  IC50: Not Active
[3]
  IC50: Not Active
Cytochrome P450 1A2
  IC50: Not Active
  Ki: Not Active

From ChEMBL document CHEMBL1909046, “DrugMatrix in vitro pharmacology data”
